Data from ChEMBL document CHEMBL1208720, “N-Benzylsalicylthioamides as novel compounds with promising antimycotic activity” (2010).
Converted amounts (≈) assume the structure as drawn.

Assays:
Format in all cases: functional
Candida albicans [1] = experiment: Antifungal activity against Candida albicans ATCC 44859 after 24 hrs by broth microdilution assay; conditions: Candida albicans, ATCC 44859, 24 h
Candida albicans [2] = experiment: Antifungal activity against Candida albicans ATCC 44859 after 48 hrs by broth microdilution assay; conditions: Candida albicans, ATCC 44859, 48 h
Candida tropicalis [3] = experiment: Antifungal activity against Candida tropicalis 159 after 24 hrs by broth microdilution assay; conditions: Candida tropicalis, 159, 24 h
Candida tropicalis [4] = experiment: Antifungal activity against Candida tropicalis 159 after 48 hrs by broth microdilution assay; conditions: Candida tropicalis, 159, 48 h
Pichia kudriavzevii [5] = experiment: Antifungal activity against Candida krusei E28 after 24 hrs by broth microdilution assay; conditions: Pichia kudriavzevii, E28, 24 h
Pichia kudriavzevii [6] = experiment: Antifungal activity against Candida krusei E28 after 48 hrs by broth microdilution assay; conditions: Pichia kudriavzevii, E28, 48 h
Nakaseomyces glabratus [7] = experiment: Antifungal activity against Candida glabrata 20/I after 24 hrs by broth microdilution assay; conditions: Nakaseomyces glabratus, 20/I, 24 h
Nakaseomyces glabratus [8] = experiment: Antifungal activity against Candida glabrata 20/I after 48 hrs by broth microdilution assay; conditions: Nakaseomyces glabratus, 20/I, 48 h
Trichosporon asahii [9] = experiment: Antifungal activity against Trichosporon asahii 1188 after 24 hrs by broth microdilution assay; conditions: Trichosporon asahii, 1188, 24 h
Trichosporon asahii [10] = experiment: Antifungal activity against Trichosporon asahii 1188 after 48 hrs by broth microdilution assay; conditions: Trichosporon asahii, 1188, 48 h
Aspergillus fumigatus [11] = experiment: Antifungal activity against Aspergillus fumigatus 231 after 24 hrs by broth microdilution assay; conditions: Aspergillus fumigatus, 231, 24 h
Aspergillus fumigatus [12] = experiment: Antifungal activity against Aspergillus fumigatus 231 after 48 hrs by broth microdilution assay; conditions: Aspergillus fumigatus, 231, 48 h
Lichtheimia corymbifera [13] = experiment: Antifungal activity against Absidia corymbifera 272 after 24 hrs by broth microdilution assay; conditions: Lichtheimia corymbifera, 272, 24 h
Lichtheimia corymbifera [14] = experiment: Antifungal activity against Absidia corymbifera 272 after 48 hrs by broth microdilution assay; conditions: Lichtheimia corymbifera, 272, 48 h
[15] = tested on: Trichophyton mentagrophytes; experiment: Antifungal activity against Trichophyton mentagrophytes 445 after 72 hrs by broth microdilution assay; conditions: Trichophyton mentagrophytes, 445, 72 h
[16] = tested on: Trichophyton mentagrophytes; experiment: Antifungal activity against Trichophyton mentagrophytes 445 after 120 hrs by broth microdilution assay; conditions: Trichophyton mentagrophytes, 445, 120 h

MIC (Candida albicans [1]) [µM]	MIC (Candida albicans [2]) [µM]	MIC (Candida tropicalis [3]) [µM]	MIC (Candida tropicalis [4]) [µM]	MIC (Pichia kudriavzevii [5]) [µM]	MIC (Pichia kudriavzevii [6]) [µM]	MIC (Nakaseomyces glabratus [7]) [µM]	MIC (Nakaseomyces glabratus [8]) [µM]	MIC (Trichosporon asahii [9]) [µM]	MIC (Trichosporon asahii [10]) [µM]	MIC (Aspergillus fumigatus [11]) [µM]	MIC (Aspergillus fumigatus [12]) [µM]	MIC (Lichtheimia corymbifera [13]) [µM]	MIC (Lichtheimia corymbifera [14]) [µM]	MIC [15] [µM]	MIC [16] [µM]	Structure (SMILES)
125 (≈ 34.7 µg/mL)	125 (≈ 34.7 µg/mL)	125 (≈ 34.7 µg/mL)	125 (≈ 34.7 µg/mL)	62.5 (≈ 17.4 µg/mL)	125 (≈ 34.7 µg/mL)	125 (≈ 34.7 µg/mL)	250 (≈ 69.4 µg/mL)	31.2 (≈ 8.68 µg/mL)	31.2 (≈ 8.68 µg/mL)	62.5 (≈ 17.4 µg/mL)	62.5 (≈ 17.4 µg/mL)	31.2 (≈ 8.68 µg/mL)	31.2 (≈ 8.68 µg/mL)	7.81 (≈ 2.17 µg/mL)	15.6 (≈ 4.34 µg/mL)	Oc1ccccc1C(=S)NCc1cccc(Cl)c1
> 500	> 500	> 500	> 500	> 500	> 500	> 500	> 500	250 (≈ 74.9 µg/mL)	250 (≈ 74.9 µg/mL)	250 (≈ 74.9 µg/mL)	> 500	15.6 (≈ 4.68 µg/mL)	62.5 (≈ 18.7 µg/mL)	15.6 (≈ 4.68 µg/mL)	15.6 (≈ 4.68 µg/mL)	CC(C)(C)c1ccc(CNC(=S)c2ccccc2O)cc1
125 (≈ 33.9 µg/mL)	250 (≈ 67.8 µg/mL)	125 (≈ 33.9 µg/mL)	500 (≈ 136 µg/mL)	62.5 (≈ 17 µg/mL)	125 (≈ 33.9 µg/mL)	125 (≈ 33.9 µg/mL)	500 (≈ 136 µg/mL)	31.2 (≈ 8.48 µg/mL)	62.5 (≈ 17 µg/mL)	125 (≈ 33.9 µg/mL)	500 (≈ 136 µg/mL)	7.81 (≈ 2.12 µg/mL)	31.2 (≈ 8.48 µg/mL)	15.6 (≈ 4.24 µg/mL)	15.6 (≈ 4.24 µg/mL)	Cc1ccc(CNC(=S)c2ccc(C)cc2O)cc1
62.5 (≈ 17.4 µg/mL)	125 (≈ 34.7 µg/mL)	62.5 (≈ 17.4 µg/mL)	125 (≈ 34.7 µg/mL)	15.6 (≈ 4.34 µg/mL)	31.2 (≈ 8.68 µg/mL)	15.6 (≈ 4.34 µg/mL)	62.5 (≈ 17.4 µg/mL)	31.2 (≈ 8.68 µg/mL)	31.2 (≈ 8.68 µg/mL)	31.2 (≈ 8.68 µg/mL)	31.2 (≈ 8.68 µg/mL)	15.6 (≈ 4.34 µg/mL)	15.6 (≈ 4.34 µg/mL)	1.95 (≈ 0.542 µg/mL)	3.9 (≈ 1.08 µg/mL)	Oc1ccc(Cl)cc1C(=S)NCc1ccccc1
15.6 (≈ 5.57 µg/mL)	31.2 (≈ 11.1 µg/mL)	31.2 (≈ 11.1 µg/mL)	31.2 (≈ 11.1 µg/mL)	3.9 (≈ 1.39 µg/mL)	15.6 (≈ 5.57 µg/mL)	31.2 (≈ 11.1 µg/mL)	31.2 (≈ 11.1 µg/mL)	7.81 (≈ 2.79 µg/mL)	7.81 (≈ 2.79 µg/mL)	7.81 (≈ 2.79 µg/mL)	7.81 (≈ 2.79 µg/mL)	0.98 (≈ 0.35 µg/mL)	1.95 (≈ 0.696 µg/mL)	0.98 (≈ 0.35 µg/mL)	1.95 (≈ 0.696 µg/mL)	Oc1cc(Cl)ccc1C(=S)NCc1ccc(Br)cc1
31.2 (≈ 9.24 µg/mL)	125 (≈ 37 µg/mL)	62.5 (≈ 18.5 µg/mL)	125 (≈ 37 µg/mL)	7.81 (≈ 2.31 µg/mL)	15.6 (≈ 4.62 µg/mL)	62.5 (≈ 18.5 µg/mL)	125 (≈ 37 µg/mL)	7.81 (≈ 2.31 µg/mL)	15.6 (≈ 4.62 µg/mL)	31.2 (≈ 9.24 µg/mL)	15.6 (≈ 4.62 µg/mL)	15.6 (≈ 4.62 µg/mL)	15.6 (≈ 4.62 µg/mL)	15.6 (≈ 4.62 µg/mL)	15.6 (≈ 4.62 µg/mL)	Oc1ccc(Cl)cc1C(=S)NCc1ccc(F)cc1
62.5 (≈ 16.3 µg/mL)	125 (≈ 32.7 µg/mL)	125 (≈ 32.7 µg/mL)	250 (≈ 65.3 µg/mL)	62.5 (≈ 16.3 µg/mL)	125 (≈ 32.7 µg/mL)	125 (≈ 32.7 µg/mL)	250 (≈ 65.3 µg/mL)	31.2 (≈ 8.17 µg/mL)	62.5 (≈ 16.3 µg/mL)	62.5 (≈ 16.3 µg/mL)	62.5 (≈ 16.3 µg/mL)	15.6 (≈ 4.08 µg/mL)	31.2 (≈ 8.17 µg/mL)	7.81 (≈ 2.04 µg/mL)	31.2 (≈ 8.17 µg/mL)	Oc1ccccc1C(=S)NCc1ccc(F)cc1
15.6 (≈ 6.11 µg/mL)	31.2 (≈ 12.2 µg/mL)	31.2 (≈ 12.2 µg/mL)	31.2 (≈ 12.2 µg/mL)	7.81 (≈ 3.05 µg/mL)	15.6 (≈ 6.11 µg/mL)	31.2 (≈ 12.2 µg/mL)	62.5 (≈ 24.4 µg/mL)	3.9 (≈ 1.53 µg/mL)	7.81 (≈ 3.05 µg/mL)	7.81 (≈ 3.05 µg/mL)	7.81 (≈ 3.05 µg/mL)	3.9 (≈ 1.53 µg/mL)	3.9 (≈ 1.53 µg/mL)	0.98 (≈ 0.383 µg/mL)	0.98 (≈ 0.383 µg/mL)	Oc1ccc(Br)cc1C(=S)NCc1ccc(Cl)c(Cl)c1
